The values below come from patent US20160089377A1, “THERAPEUTIC TARGETING OF THE MTOR PATHWAY IN NEURODEVELOPMENTAL AND NEUROPSYCHIATRIC DISEASE” (THE TRUSTEES OF COLUMBIA UNIVERISTY IN THE CITY OF NEW YORK, priority 2013, published 2016).

The subject of assay [1] is Cntnap2 mutant mice. As to the kind of experiment: Social interaction test (10-minute interval) and grooming. The format is in vivo. The protocol:
(§1) Cntnap2 mutant and WT mice were obtained from heterozygous crossings and were born with the expected Mendelian frequencies. The three obtained genotypes were housed together. Mice were treated with p.o. gavaging once per day with either WYE125132 (10 mg/kg) or vehicle. All procedures involving animals were performed in accordance with the Columbia University/New York State Psychiatric Institute animal research committee.
(§2) WYE125132 (Chemscene) was administered by a daily p.o. gavaging in a volume of 10 ml/kg. For all behavioral experiments, dams were treated from PO to P12 after which individual pups were gavaged on a daily basis going forward. Mice also received drug treatment on the days of testing, at least 1 hour prior the experiment. For the two-photon and cell size quantitation studies, mice were gavaged from P12 to p35, after they were
(§3) Mice were marked with ear tagging. Experimenters were blinded to the genotype during testing. Behavioral tests were performed in the New York State Psychiatric Institute behavioral test core facility.
Detailed measurements of interaction between pairs of mice placed together in standard cages provide insights into reciprocal social interactions (Silverman et al., 2010). We examined (i) whether juvenile Cntnap2 mutant mice display decreased social interaction over a 10-minute interval and (ii) whether mutant mice have reduced tendency to approach novel social stimuli, as evidenced by social inhibition in the first minute of the tested interval (Curley et al., 2009). The first minute of this social interaction paradigm represents the phase when preference for social novelty is normally established. There were significant differences between genotypes in the amount of time spent on social investigation of the stimulus animal both in the first minute of the test (One-Way ANOVA F2,38=5.01, P<0.05; FIG. 15A) as well as over the entire 10-minute test (F2,38=3.27, P<0.05; FIG. 15A). Both Cntnap2^+/− and Cntnap2^−/− mice investigated the stimulus mouse for less time than their wild-type (WT) littermates (Dunnett post-hoc tests, all P<0.05).
Mutant mice were treated with WYE125132 or vehicle by daily gavaging.

Assay [2] relates to pyramidal cells of Cntnap2 (Caspr2) mutant mice. Put plainly: Soma size quantitation of pyramidal cells after WYE125132 treatment. The format is in vivo. From the text:
In order to assess whether we could reverse or prevent the cellular abnormalities (i.e., enlarged pyramidal cell size), we treated with WYE125132 (‘Tx’ in FIG. 12) or vehicle (‘veh’ in FIG. 12) Caspr2^+/−/Thy1-YFP/H and Caspr2^−/−/Thy-1-YFP/H mice and WT littermates also positive for YFP/H for the entire period P12-P35. The mice were perfused and subsequently fixed with 4% PFA and sectioned coronally at 16 microns. Subsequently, 200× images were taken using an epifluorescent microscope of somatosensory and auditory cortex—a total of 15 images per animal/cortical region. The cell somata were traced on Photoshop to quantify pixels. We then converted the pixels to square microns. For the analysis listed here, Caspr2^+/−/Thy1-YFP/H and
Cntnap2 mutant and WT mice were obtained from heterozygous crossings and were born with the expected Mendelian frequencies. […]
WYE125132 (Chemscene) was administered by a daily p.o. gavaging in a volume of 10 ml/kg. […] For the two-photon and cell size quantitation studies, mice were gavaged from P12 to p35, after they were
Soma Size Quantitation. […]
perfused with PBS and then 4% PFA and subsequently post-fixed in 4% PFA for 1 hour at 4° C. […] Sections containing auditory and somatosensory cortices were analyzed. […] Soma size was determined by manually tracing pyramidal cell somata and measuring pixel number per selection. […] For each animal, 90 to 140 somata were measured. […]

Assay [3] deals with Cntnap2 mutant mice. As to the kind of experiment: Novel Object Recognition (NOR) test. It is filed as in vivo. To be noted: WYE125132-treated Cntnap2-/- mice, P<0.05. Here is the method: as §1, §2, §3
We examined whether we could reverse cognitive deficits in Cntnap2 mutant mice. We subjected Cntnap2 mutant mice to the Novel Object Recognition (NOR) test, a behavioral task that requires precise cognitive control. […]

Assay [4] deals with glutamate receptor subunits GluR1, GluR2, NR1, NR2A, NR2B and mGluR5. As to the kind of experiment: Immunoblot of glutamate receptor subunits in PFC homogenates after treatment. It is filed as in vivo, mice. To be noted: for expression of glutamate receptor subunits altered in mutants: Cntnap2-/- and Cntnap2+/- mice aged 5-8 months. The protocol:
(§4) euthanized. For the electrophysiology and western blot rescue experiments, adult mice were gavaged for 14 consecutive days after which they were euthanized.
(§5) Western blot analysis of mouse brain tissue and immunocytochemistry in human brain tissue was performed using standard methods.
We also evaluated whether treatment with WYE126132 reverses the alterations in the expression of the glutamate receptor subunits found in Cntnap2 mutant mice. Mice aged 5-8 months were treated for consecutive days.

Assay [5] concerns phosphorylated ribosomal protein S6 (pS6). Put plainly: Immunoblot of phosphorylated S6 in cortex after WYE125132 treatment. The format is in vivo. The note with it: cortex of Cntnap2-/- and Cntnap2+/- mice, 14 consecutive days gavage 10 mg/kg. Here is the method: as §1, §4, §5
We examined whether we can reverse the dramatic enlargement of the pyramidal cell somata by targeting the mTOR overactivation. To this end, mice were gavaged daily with WYE125132 from P12 until P33-36 after which their brains were harvested for further analysis.

“Also recorded” adds a separate entry of the source.

As for `CNC(=O)Nc1ccc(-c2nc(N3CC4CCC(C3)O4)c3cnn(C4CCC5(CC4)OCCO5)c3n2)cc1` [WYE125132], the “number (total frequency) of social interactions over the whole 10-minute interval” value with Cntnap2 mutant mice [1] (Cntnap2+/- mice, daily gavage, P<0.05) was “rescued; also recorded: corrects”. Moreover, in the assay on Cntnap2 mutant mice [1] (Cntnap2+/- mice, daily gavage, versus vehicle, P<0.01), the “social interaction deficits in the first minute of testing” value is recorded as “reversal of the social interaction deficits; also recorded: corrects the social interaction deficits”. For the same molecule, the “maximum grooming bout duration” value in the assay with Cntnap2 mutant mice [1] (Cntnap2+/- mutant mice, WYE125132 versus vehicle, P<0.05) is given as “increased significantly”. The “time spent sniffing the stimulus mouse in the very first part of the test” value is listed as “increases the time” in the assay on Cntnap2 mutant mice [1] (Cntnap2 mutant mice) and “no such effect” with Cntnap2 mutant mice [1] (WT littermates). Moreover, the “enlarged pyramidal cell soma size” value in assay [2] (Cntnap2+/- and Cntnap2-/- (Caspr2) mutant mice, daily p.o. gavage 10 mg/kg, P12 to P33-36 (about 3 weeks), 10 mg/kg) is on record as “completely reverses the enlarged pyramidal cell size; also recorded: complete reversal of the pyramidal cell enlargement phenotype; also recorded: entirely rescued”. Besides, in assay [2] (WT mice, compound versus vehicle), the “soma size in WT animals” value is given as “no effect on soma size”. In addition, in the assay on Cntnap2 mutant mice [3], the “deficit in the Novel Object Recognition test” value is recorded as “rescue of this phenotype; also recorded: rescue of a deficit”. Also, the figures for the “expression of glutamate receptor subunits altered in mutants” value in assay [4] and in assay [4] (listed as WYE126132) were “entirely reversed; also recorded: complete normalization of all glutamate receptor subunits” and “complete normalization of all glutamate receptor subunits”, respectively. Besides, the “expression of glutamate receptor subunits in WT animals” value in assay [4] (WT mice) is listed as “no effects”. Also, the “phosphorylation of S6 (Phospho-S6: S6)” value in assay [5] is given as “reverses phosphorylation of S6 to levels observed in WT littermates; also recorded: completely reversed”.
